Assays:
IGF1R tyrosine kinase = molecular target: T1, IGF1R tyrosine kinase (Homo sapiens, UniProt P08069); assay: IGF1R tyrosine kinase assay (Kinase-Glo ATP depletion or PT66/PT100 AlphaScreen); conditions: biochemical tyrosine kinase assay
T1 construct: 6×His- or GST-tagged kinase domain fragments of the corresponding RTKs expressed in baculovirus system; host or cells: baculovirus system
Procedure, shortened: (§1)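 Recombinant His- or GST-tagged kinase domains from baculovirus were assayed with poly(Glu-Tyr, 4:1) substrate and 10 μM ATP in Tris-HCl pH 7.5 with Mg2+/Mn2+. Kinase-Glo: 37° C for 60 minutes, residual ATP read by luminescence. IC50 from non-linear regression over eight concentrations, 1 nM to 20 μM.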

InsR = molecular target: T2, InsR (Homo sapiens, UniProt P06213); assay: Tyrosine kinase assay (Kinase-Glo or AlphaScreen), InsR; conditions: biochemical tyrosine kinase assay
T2 construct: 6×His- or GST-tagged kinase domain fragments of the corresponding RTKs expressed in baculovirus system; host or cells: baculovirus system
T2 sequence (P06213 1023-1298 limits assumed, species assumed): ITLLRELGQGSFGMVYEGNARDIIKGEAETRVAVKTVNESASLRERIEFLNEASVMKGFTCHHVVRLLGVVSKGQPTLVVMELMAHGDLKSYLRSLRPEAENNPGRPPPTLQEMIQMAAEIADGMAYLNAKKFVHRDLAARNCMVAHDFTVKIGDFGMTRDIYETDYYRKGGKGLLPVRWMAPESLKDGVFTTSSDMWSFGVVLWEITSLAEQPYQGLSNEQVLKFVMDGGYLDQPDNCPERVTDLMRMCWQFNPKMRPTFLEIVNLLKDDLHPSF
Procedure, shortened: as §1

H929 (multiple myeloma) = assay: Cell proliferation inhibition, Cell Titer-Glo, H929; assay type: cell-based; conditions: Homo sapiens, NCI-H929; cell proliferation assay, H929 cells
Procedure, shortened: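 Cells seeded at 2500-5000 per well with serially diluted compound for typically 3 days. Viable cells measured by ATP luminescence (Cell Titer-Glo); IC50 from proliferation-inhibition curves.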

Ba/F3 = assay: Cell proliferation inhibition, Cell Titer-Glo, Ba/F3; assay type: cell-based; conditions: Mus musculus, BaF3; cell proliferation assay, Ba/F3 cells
Procedure, shortened: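 Ba/F3 cells were seeded at 2500-5000 cells per well in white, clear-bottomed 384-well culture plates and exposed to serial dilutions of test compounds for 3 days. Cell Titer-Glo Luminescent Cell Viability Assay (Promega) reagent, which measures total ATP as an indicator of metabolic activity, was added. Luminescence was read on a multiwell plate reader to derive IC50 values for inhibition of proliferation.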

Karpas-299 = assay: Cell proliferation inhibition, Cell Titer-Glo, Karpas-299; assay type: cell-based; conditions: Homo sapiens; cell proliferation assay, Karpas-299 cells
Procedure, shortened: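 Karpas 299 cells were seeded into white, clear-bottomed 384-well culture plates at 2500-5000 cells per well and exposed to serial dilutions of test compounds for about 3 days. Viable cell numbers were then measured with the Cell Titer-Glo Luminescent Cell Viability Assay (Promega), which detects total ATP, and IC50 values for proliferation inhibition were derived.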

T1 sequence (P08069 999-1274 limits assumed): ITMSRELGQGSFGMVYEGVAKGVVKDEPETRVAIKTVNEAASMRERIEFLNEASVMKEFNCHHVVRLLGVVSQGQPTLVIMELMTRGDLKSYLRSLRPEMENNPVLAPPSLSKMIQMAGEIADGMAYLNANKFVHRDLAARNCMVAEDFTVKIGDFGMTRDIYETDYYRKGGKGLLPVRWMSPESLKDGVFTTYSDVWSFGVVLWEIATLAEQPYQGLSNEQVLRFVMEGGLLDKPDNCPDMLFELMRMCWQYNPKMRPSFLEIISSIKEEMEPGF

SMILES	IC50 (IGF1R tyrosine kinase)	IC50 (InsR)	IC50 (H929 (multiple myeloma))	IC50 (Ba/F3)	IC50 (Karpas-299)
CN1CCC(N2C(=O)c3cc4nc(-c5c(NC[C@@H](O)c6cccc(Cl)c6)cc[nH]c5=O)[nH]c4cc3C2=O)CC1 [compound 1]	< 0.5 µM	< 0.5 µM	0.5 to 5 µM		
O=C1c2cc3nc(-c4c(NC[C@@H](O)c5cccc(Cl)c5)cc[nH]c4=O)[nH]c3cc2C(=O)N1C[C@@H]1CCCO1 [compound 29]	> 15 µM	> 15 µM		5 to 15 µM	5 to 15 µM
Cc1ccc(OC[C@H](O)CNc2cc[nH]c(=O)c2-c2nc3cc4c(cc3[nH]2)C(=O)N(C2CCN(C)CC2)C4=O)c(C)c1 [compound 59]	< 0.5 µM	< 0.5 µM	0.5 to 5 µM	0.5 to 5 µM	0.5 to 5 µM
COc1cccc(OCC(O)CNc2cc[nH]c(=O)c2-c2nc3cc4c(cc3[nH]2)C(=O)N(C2CCN(C)CC2)C4=O)c1 (stereo not shown) [compound 6]	< 0.5 µM	0.5 to 5 µM	5 to 15 µM		
O=C1c2cc3nc(-c4c(NC[C@@H](O)c5cccc(Cl)c5)cc[nH]c4=O)[nH]c3cc2C(=O)N1[C@@H]1CN2CCC1CC2 [compound 33]	< 0.5 µM	< 0.5 µM		> 15 µM	> 15 µM
Cc1ncsc1CCN1C(=O)c2cc3nc(-c4c(NC[C@@H](O)c5cccc(Cl)c5)cc[nH]c4=O)[nH]c3cc2C1=O [compound 32]	5 to 15 µM	> 15 µM	5 to 15 µM	0.5 to 5 µM	> 15 µM
Cc1ccc(OCC(O)CNc2cc[nH]c(=O)c2-c2nc3cc4c(cc3[nH]2)C(=O)N(CC2CCN(CCO)CC2)C4=O)c(C)c1 (stereo not shown) [compound 37]	> 15 µM	< 0.5 µM	0.5 to 5 µM	> 15 µM	> 15 µM
Cc1ccc(OC[C@@H](O)CNc2cc[nH]c(=O)c2-c2nc3cc4c(cc3[nH]2)C(=O)N(C2CCN(C)CC2)C4=O)c(C)c1 [compound 64]	< 0.5 µM	0.5 to 5 µM		5 to 15 µM	> 15 µM
O=C1c2cc3nc(-c4c(NC[C@@H](O)c5cccc(Cl)c5)cc[nH]c4=O)[nH]c3cc2C(=O)N1CCc1ccncc1 [compound 28]	> 15 µM	5 to 15 µM		> 15 µM	> 15 µM
CN1CCC(N2C(=O)c3cc4nc(-c5c(NC[C@@H](O)COc6cccc(-c7ccccc7)c6)cc[nH]c5=O)[nH]c4cc3C2=O)CC1 [compound 89]	0.5 to 5 µM	0.5 to 5 µM	5 to 15 µM	5 to 15 µM	0.5 to 5 µM
CC(C)(CO)CN1C(=O)c2cc3nc(-c4c(NC[C@@H](O)c5cccc(Cl)c5)cc[nH]c4=O)[nH]c3cc2C1=O [compound 26]	0.5 to 5 µM	5 to 15 µM			
C[C@H](O)CN1C(=O)c2cc3nc(-c4c(NC[C@@H](O)c5cccc(Cl)c5)cc[nH]c4=O)[nH]c3cc2C1=O [compound 31]	5 to 15 µM	0.5 to 5 µM	0.5 to 5 µM	> 15 µM	> 15 µM
CN1CCC(N2C(=O)c3cc4nc(-c5c(NC[C@@H](O)COc6cccc(OC(F)(F)C(F)F)c6)cc[nH]c5=O)[nH]c4cc3C2=O)CC1 [compound 91]	5 to 15 µM	0.5 to 5 µM	0.5 to 5 µM	> 15 µM	5 to 15 µM
CN1CCC(N2C(=O)c3cc4nc(-c5c(NC[C@@H](O)COc6ccc7ccccc7c6)cc[nH]c5=O)[nH]c4cc3C2=O)CC1 [compound 88]	0.5 to 5 µM	0.5 to 5 µM	5 to 15 µM	5 to 15 µM	5 to 15 µM
Cc1ccc(OCC(O)CNc2cc[nH]c(=O)c2-c2nc3cc4c(cc3[nH]2)C(=O)N(C2CCN(C)CC2)C4=O)c(C)c1 (stereo not shown) [compound 15]	< 0.5 µM	< 0.5 µM	0.5 to 5 µM		
Cc1cc(C)n(C[C@H](O)CNc2cc[nH]c(=O)c2-c2nc3cc4c(cc3[nH]2)C(=O)N(C2CCN(C)CC2)C4=O)n1 [compound 92]	5 to 15 µM	5 to 15 µM		> 15 µM	> 15 µM
CN1CCC(N2C(=O)c3cc4nc(-c5c(N[C@H](CO)Cc6c[nH]cn6)cc[nH]c5=O)[nH]c4cc3C2=O)CC1 [compound 2]	> 15 µM	> 15 µM		> 15 µM	5 to 15 µM

The remaining lines, values ahead:

IC50 (IGF1R tyrosine kinase)	IC50 (InsR)	IC50 (H929 (multiple myeloma))	IC50 (Ba/F3)	IC50 (Karpas-299)	SMILES
< 0.5 µM	< 0.5 µM	5 to 15 µM	> 15 µM	5 to 15 µM	CN1CCC(N2C(=O)c3cc4nc(-c5c(NC[C@@H](O)COc6c(F)ccc(Cl)c6F)cc[nH]c5=O)[nH]c4cc3C2=O)CC1 [compound 95]
< 0.5 µM	< 0.5 µM	5 to 15 µM	> 15 µM	> 15 µM	Cc1ccc(OC[C@@H](O)CNc2cc[nH]c(=O)c2-c2nc3cc4c(cc3[nH]2)C(=O)N([C@@H]2CCN(C)C2)C4=O)c(C)c1 [compound 107]
< 0.5 µM	0.5 to 5 µM		> 15 µM	> 15 µM	Cc1ccc(OC[C@H](O)CNc2cc[nH]c(=O)c2-c2nc3cc4c(cc3[nH]2)C(=O)N(C2CCN(C)CC2)C4=O)cc1Cl [compound 99]
0.5 to 5 µM	< 0.5 µM	5 to 15 µM	> 15 µM	> 15 µM	CN1CCC(N2C(=O)c3cc4nc(-c5c(NC[C@@H](O)COc6cccc(Cl)c6F)cc[nH]c5=O)[nH]c4cc3C2=O)CC1 [compound 96]
< 0.5 µM	< 0.5 µM	5 to 15 µM	5 to 15 µM	0.5 to 5 µM	Cc1ccc(OC[C@H](O)CNc2cc[nH]c(=O)c2-c2nc3c(C)c4c(cc3[nH]2)C(=O)N(C2CCN(C)CC2)C4=O)c(C)c1 [compound 110]
< 0.5 µM	< 0.5 µM	5 to 15 µM	> 15 µM	> 15 µM	Cc1c(Cl)cccc1OC[C@H](O)CNc1cc[nH]c(=O)c1-c1nc2cc3c(cc2[nH]1)C(=O)N(C1CCN(C)CC1)C3=O [compound 94]
< 0.5 µM	0.5 to 5 µM	0.5 to 5 µM			CCN1CCC(N2Cc3cc4nc(-c5c(NC[C@@H](O)COc6ccc(C)cc6C)cc[nH]c5=O)[nH]c4cc3C2=O)CC1 [compound 144]
0.5 to 5 µM	0.5 to 5 µM		> 15 µM	5 to 15 µM	Cc1cc(C)c(OC[C@H](O)CNc2cc[nH]c(=O)c2-c2nc3cc4c(cc3[nH]2)C(=O)N(C2CCN(C)CC2)C4=O)cc1Cl [compound 108]
< 0.5 µM	< 0.5 µM	5 to 15 µM	5 to 15 µM	> 15 µM	Cc1ccc(OC[C@@H](O)CNc2cc[nH]c(=O)c2-c2nc3cc4c(cc3[nH]2)C(=O)N([C@H]2CCN(C)C2)C4=O)c(C)c1 [compound 106]
< 0.5 µM	< 0.5 µM	0.5 to 5 µM			Cc1ccc(OC[C@H](O)CNc2cc[nH]c(=O)c2-c2nc3c(C)c4c(cc3[nH]2)C(=O)N(C2CCN(C)CC2)C4)c(C)c1 [compound 139]
< 0.5 µM	< 0.5 µM	0.5 to 5 µM	> 15 µM	5 to 15 µM	COc1ccc(OC[C@H](O)CNc2cc[nH]c(=O)c2-c2nc3cc4c(cc3[nH]2)C(=O)N(C2CCN(C)CC2)C4=O)c(OC)c1OC [compound 93]
< 0.5 µM	0.5 to 5 µM	5 to 15 µM			CCN1CCC(N2C(=O)c3cc4nc(-c5c(NC[C@@H](O)COc6ccc(C)cc6C)cc[nH]c5=O)[nH]c4cc3C2=O)CC1 [compound 143]
0.5 to 5 µM	0.5 to 5 µM	5 to 15 µM	> 15 µM	> 15 µM	CN1CCC(N2C(=O)c3cc4nc(-c5c(NC[C@@H](O)COc6cccc(C(F)(F)F)c6)cc[nH]c5=O)[nH]c4cc3C2=O)CC1 [compound 97]
< 0.5 µM	< 0.5 µM	< 0.5 µM			Cc1ccc(OC[C@H](O)CNc2cc[nH]c(=O)c2-c2nc3cc4c(c(C)c3[nH]2)CN(C2CCN(C)CC2)C4=O)c(C)c1 [compound 132]
0.5 to 5 µM	0.5 to 5 µM		5 to 15 µM	0.5 to 5 µM	Cc1ccc(Cl)c(C)c1OC[C@H](O)CNc1cc[nH]c(=O)c1-c1nc2cc3c(cc2[nH]1)C(=O)N(C1CCN(C)CC1)C3=O [compound 111]
< 0.5 µM	< 0.5 µM	< 0.5 µM			Cc1ccc(OC[C@H](O)CNc2cc[nH]c(=O)c2-c2nc3c(C)c4c(cc3[nH]2)CN(C2CCN(C)CC2)C4=O)c(C)c1 [compound 140]
< 0.5 µM	< 0.5 µM	0.5 to 5 µM			Cc1ccc(OC[C@H](O)CNc2cc[nH]c(=O)c2-c2nc3cc4c(cc3[nH]2)CN(C2CCN(C)CC2)C4=O)c(C)c1 [compound 130]
< 0.5 µM	< 0.5 µM				Cc1ccc(OC[C@H](O)CNc2cc[nH]c(=O)c2-c2nc3cc4c(cc3[nH]2)C(=O)N(C2CCNCC2)C4=O)c(C)c1 [compound 142]
< 0.5 µM	< 0.5 µM	< 0.5 µM			CCc1cc(C)ccc1OC[C@H](O)CNc1cc[nH]c(=O)c1-c1nc2cc3c(cc2[nH]1)CN(C1CCN(C)CC1)C3=O [compound 141]

— patent publication US8063225B2, “Tricyclic compound derivatives useful in the treatment of neoplastic diseases, inflammatory disorders and immunomodulatory disorders” (Chembridge Corporation, priority 2006, dated 2011)
